In patent publication US20110230359A1, “LABEL-FREE ON-TARGET PHARMACOLOGY METHODS” (priority 2010, published 2011):

What was measured:
EGFR = test: modulation profiling DMR assay, marker EGF, A431 cells; assay type: cell-based, human; conditions: 10 μM salbutamol pretreatment ~1 hr, 32 nM epidermal growth factor
GPR109A = test: modulation profiling DMR assay, marker nicotinic acid, A431 cells; assay type: cell-based, human; conditions: 10 μM salbutamol pretreatment ~1 hr, 1 μM nicotinic acid

Q: With `CC(C)(C)NCC(O)c1ccc(O)c(CO)c1` (centres unmarked) [salbutamol] as the compound, how does the “modulation of EGF DMR (P-DMR and N-DMR)” value (EGFR) read?
A: Its value is “little impact”.

Q: What about the “modulation of nicotinic acid DMR (P-DMR)” value (GPR109A) of the same compound?
A: The value was “potentiates”.
